In patent publication US11104648B2, “Pyrazole derivative” (Zhejiang Research Institute of Chemical Industry Co., Ltd., priority 2018, dated 2021):
Where two headings read alike, the source gives them in different places.

Key:
Format in all cases: in vivo
[1] = system: Eggs of Tetranychus Cinnabarinus; assay: Activity assay of eggs of Tetranychus cinnabarinus (spray method, ovicidal); details: Tetranychus cinnabarinus; for pest or weed control at 2 µg/mL: concentration 2 mg/L
Method in brief: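 Female mites laid eggs on broad bean leaves for 24 h, adults removed, eggs sprayed with compound in DMF (≤10%)/1‰ Tween 80. Held at 26±2° C, 70–80% humidity, 16 h light; unhatched eggs counted dead once blank control hatched. Three replicates.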

[2] = system: adult Tetranychus cinnabarinus; assay: Activity assay of adult Tetranychus cinnabarinus (whole-plant spray on bean seedlings); details: 48 h; for pest or weed control at 1.25 µg/mL: concentration 1.25 mg/L
Method in brief: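 Bean seedlings at two-true-leaf stage, infested with adult mites and base count taken, sprayed whole-plant with compound in DMF (≤10%) diluted in 1‰ Tween 80. Three replicates per treatment kept in standard observation room. Surviving mites counted at 48 h to give death rate.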

[3] = system: Tetranychus cinnabarinus Nymphs; assay: Activity assay of Tetranychus cinnabarinus nymphs (spray on broad bean leaves)
Method in brief: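 Compound in DMF (≤10%) diluted in 1‰ Tween 80 water was sprayed onto broad bean leaves carrying nymphs hatched from eggs laid by female adults over 24 h. Kept at 26±2° C., 70%–80% humidity, 16 h light; mortality (no response to touch) assessed after 48 h, three replicates with blank control.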

[4] = spray, read-out: ovicidal activity
[5] = concentration 5 mg/L, spray, non-incubated eggs counted as dead, read-out: ovicidal activity
[6] = read-out: adult mite-killing activity
[7] = concentration 2.5 mg/L, read-out: adult mite-killing activity
[8] = 48 h, concentration 2 mg/L, read-out: nymph-killing activity
[9] = 48 h, concentration 2.5 mg/L, read-out: nymph-killing activity
[10] = eggs, parallel determination, read-out: Death rate (%)
[11] = adult mites, parallel determination, read-out: Death rate (%)
[12] = 48 h, nymphs, concentration 0.5 mg/L, parallel determination, read-out: Death rate (%)

SMILES	pest or weed control at 5 µg/mL [1, 5]	pest or weed control at 2.5 µg/mL [2, 7]	pest or weed control at 2.5 µg/mL [3, 9]	other results
CCn1nc(C)c(C)c1/C(OC(C)OC(=O)C(C)(C)C)=C(\C#N)c1ccc(C(C)(C)C)cc1 (stereo not drawn) [Compound 405]	≥ 90%	≥ 90%	≥ 95%	pest or weed control at 2 µg/mL [1, 4]: ≥ 90%; pest or weed control at 1.25 µg/mL [2, 6]: ≥ 90%; pest or weed control at 2 µg/mL [3, 8]: ≥ 90%
CCn1nc(C)cc1/C(OC(C)OC(=O)OCCOC)=C(\C#N)c1ccc(C(C)(C)C)cc1 (stereo not drawn) [Compound 596]	≥ 90%	≥ 90%	≥ 95%	–
Cc1nn(C)c(/C(OC(C)OC(=O)C2CC2)=C(\C#N)c2ccc(C(C)(C)C)cc2)c1C (stereo not drawn) [Compound 184]	≥ 90%	≥ 90%	≥ 95%	–
CCn1nc(C)cc1/C(OC(C)OC(=O)C(C)C)=C(\C#N)c1ccc(C(C)(C)C)cc1 (stereo not drawn) [Compound 254]	≥ 90%	≥ 90%	≥ 95%	pest or weed control at 2 µg/mL [1, 4]: ≥ 90%; pest or weed control at 2 µg/mL [1, 10]: 99%; pest or weed control at 1.25 µg/mL [2, 11]: 97%; pest or weed control at 1.25 µg/mL [2, 6]: ≥ 90%; pest or weed control at 2 µg/mL [3, 8]: ≥ 90%; pest or weed control at 0.5 µg/mL [3, 12]: 96%
C=CC(=O)OCO/C(=C(/C#N)c1ccc(C(C)(C)C)cc1)c1c(C)c(C)nn1C [Compound 167]	≥ 90%	≥ 90%	≥ 95%	–
CCCCCOC(=O)OCO/C(=C(/C#N)c1ccc(C(C)(C)C)cc1)c1c(C)c(C)nn1CC [Compound 940]	≥ 90%	≥ 90%	≥ 95%	pest or weed control at 2 µg/mL [1, 4]: ≥ 90%; pest or weed control at 1.25 µg/mL [2, 6]: ≥ 90%; pest or weed control at 2 µg/mL [3, 8]: ≥ 90%
CCCC(=O)OC(C)O/C(=C(/C#N)c1ccc(C(C)(C)C)cc1)c1c(Cl)c(C)nn1C (stereo not drawn) [Compound 103]	≥ 90%	≥ 90%	≥ 95%	–
Cc1nn(C)c(/C(OCOC(=O)C2CCCCC2)=C(\C#N)c2ccc(C(C)(C)C)cc2)c1Cl [Compound 86]	≥ 90%	≥ 90%	≥ 95%	–
CCCCC(=O)OC(C)O/C(=C(/C#N)c1ccc(C(C)(C)C)cc1)c1c(C)c(C)nn1CC (stereo not drawn) [Compound 406]	≥ 90%	≥ 90%	≥ 95%	–
CCn1nc(C)c(Cl)c1/C(OC(C)OC(=O)COC)=C(\C#N)c1ccc(C(C)(C)C)cc1 (stereo not drawn) [Compound 333]	≥ 90%	≥ 90%	≥ 95%	–
CCCCCOC(=O)OCO/C(=C(/C#N)c1ccc(C(C)(C)C)cc1)c1cc(C)nn1CC [Compound 556]	≥ 90%	≥ 90%	≥ 95%	–
Cc1nn(C)c(/C(OCOC(=O)C(C)C)=C(\C#N)c2ccc(C(C)(C)C)cc2)c1C [Compound 154]	≥ 90%	≥ 90%	≥ 95%	–
CCn1nc(C)cc1/C(OCOC(=O)OCCC(C)C)=C(\C#N)c1ccc(C(C)(C)C)cc1 [Compound 554]	≥ 90%	≥ 90%	≥ 95%	–
CCOC(=O)OCO/C(=C(/C#N)c1ccc(C(C)(C)C)cc1)c1cc(C)nn1C [Compound 452]	≥ 90%	≥ 90%	≥ 95%	–
CCn1nc(C)c(C)c1/C(OC(C)OC(=O)C1CC1)=C(\C#N)c1ccc(C(C)(C)C)cc1 (stereo not drawn) [Compound 409]	≥ 90%	≥ 90%	≥ 95%	pest or weed control at 2 µg/mL [1, 4]: ≥ 90%; pest or weed control at 1.25 µg/mL [2, 6]: ≥ 90%; pest or weed control at 2 µg/mL [3, 8]: ≥ 90%
CCn1nc(C)c(C)c1/C(OC(C)OC(=O)c1ccccc1)=C(\C#N)c1ccc(C(C)(C)C)cc1 (stereo not drawn) [Compound 414]	≥ 90%	≥ 90%	≥ 95%	–
CCn1nc(C)cc1/C(OCOC(=O)OC(C)C)=C(\C#N)c1ccc(C(C)(C)C)cc1 [Compound 550]	≥ 90%	≥ 90%	≥ 95%	pest or weed control at 2 µg/mL [1, 4]: ≥ 90%; pest or weed control at 1.25 µg/mL [2, 6]: ≥ 90%; pest or weed control at 2 µg/mL [3, 8]: ≥ 90%
Cc1nn(C)c(/C(OCOC(=O)CC(C)C)=C(\C#N)c2ccc(C(C)(C)C)cc2)c1C [Compound 157]	≥ 90%	≥ 90%	≥ 95%	–
CCCCC(=O)OC(C)O/C(=C(/C#N)c1ccc(C(C)(C)C)cc1)c1cc(C)nn1C (stereo not drawn) [Compound 31]	≥ 90%	≥ 90%	≥ 95%	–
CCn1nc(C)c(C)c1/C(OCOC(=O)CF)=C(\C#N)c1ccc(C(C)(C)C)cc1 [Compound 387]	–	–	–	pest or weed control at 5 µg/mL ([1]; read-out: ovicidal activity): ≥ 90%; pest or weed control at 2.5 µg/mL [2, 6]: ≥ 90%; pest or weed control at 2.5 µg/mL ([3]; 48 h, read-out: nymph-killing activity): ≥ 95%
CCC(=O)OC(C)O/C(=C(/C#N)c1ccc(C(C)(C)C)cc1)c1cc(C)nn1C (stereo not drawn) [Compound 27]	≥ 90%	≥ 90%	≥ 95%	–
CCCCC(=O)OCO/C(=C(/C#N)c1ccc(C(C)(C)C)cc1)c1c(Cl)c(C)nn1C [Compound 81]	≥ 90%	≥ 90%	≥ 95%	–
CCCC(=O)OCO/C(=C(/C#N)c1ccc(C(C)(C)C)cc1)c1c(Cl)c(C)nn1CC [Compound 303]	≥ 90%	≥ 90%	≥ 95%	–
CCn1nc(C)cc1/C(OC(C)OC(=O)C(C)(C)CC)=C(\C#N)c1ccc(C(C)(C)C)cc1 (stereo not drawn) [Compound 266]	≥ 90%	≥ 90%	≥ 95%	–
CCCCCOC(=O)OC(C)O/C(=C(/C#N)c1ccc(C(C)(C)C)cc1)c1cc(C)nn1CC (stereo not drawn) [Compound 588]	≥ 90%	≥ 90%	≥ 95%	–
CCn1nc(C)cc1/C(OC(C)OC(=O)OC(C)C)=C(\C#N)c1ccc(C(C)(C)C)cc1 (stereo not drawn) [Compound 582]	≥ 90%	≥ 90%	≥ 95%	–
CCn1nc(C)c(Cl)c1/C(OCOC(=O)c1ccccc1)=C(\C#N)c1ccc(C(C)(C)C)cc1 [Compound 314]	≥ 90%	≥ 90%	≥ 95%	–
CCC(=O)OC(C)O/C(=C(/C#N)c1ccc(C(C)(C)C)cc1)c1cc(C)nn1CC (stereo not drawn) [Compound 252]	≥ 90%	≥ 90%	≥ 95%	pest or weed control at 2 µg/mL [1, 4]: ≥ 90%; pest or weed control at 2 µg/mL [1, 10]: 100%; pest or weed control at 1.25 µg/mL [2, 11]: 100%; pest or weed control at 1.25 µg/mL [2, 6]: ≥ 90%; pest or weed control at 2 µg/mL [3, 8]: ≥ 90%; pest or weed control at 0.5 µg/mL [3, 12]: 100%
CCn1nc(C)c(C)c1/C(OCOC(=O)Cc1ccccc1)=C(\C#N)c1ccc(C(C)(C)C)cc1 [Compound 390]	≥ 90%	≥ 90%	–	pest or weed control at 2.5 µg/mL ([3]; concentration 2.5 mg/L, 48 h, read-out: nymph-killing activity): ≥ 95%
CCCCCOC(=O)OCO/C(=C(/C#N)c1ccc(C(C)(C)C)cc1)c1cc(C)nn1C [Compound 460]	≥ 90%	≥ 90%	≥ 95%	–
